Measured values as given in patent EP0337731B1, “Peptide antibiotics” (ELI LILLY AND COMPANY, priority 1988, dated 1989).

Test system: A54145.1, A54145.2, and A54145.3
Test: Resistance to antibiotics, sensitivity discs on seeded ISP No. 2 agar plates
Format: cell-based, Streptomyces fradiae
Method: A54145.1, A54145.2, and A54145.3 had identical antibiotic-resistance patterns. The strains were resistant to lincomycin at 2 µg and penicillin G at 10 units. The strains were sensitive to bacitracin at 10 units, cephalothin at 30 µg, gentamicin at 10 µg, neomycin at 30 µg, oleandomycin at 15 µg, rifampin at 5 µg, streptomycin at 10 µg, tetracycline at 30 µg, tobramycin at 10 µg and vancomycin at 30 µg.

`CN[C@H](CC(C)C)C(=O)N[C@H]1C(=O)N[C@@H](CC(N)=O)C(=O)N[C@H]2C(=O)N[C@H]3C(=O)N[C@H](C(=O)N[C@H](C(=O)O)c4cc(O)cc(O)c4-c4cc3ccc4O)[C@H](O)c3ccc(c(Cl)c3)Oc3cc2cc(c3O[C@@H]2O[C@H](CO)[C@@H](O)[C@H](O)[C@H]2O[C@H]2C[C@](C)(N)[C@H](O)[C@H](C)O2)Oc2ccc(cc2Cl)[C@H]1O` [vancomycin] was tested. Which antibiotic-resistance pattern (disc at 30 µg) did it give?
Its antibiotic-resistance pattern is “sensitive”.

`CO[C@H]1C[C@H](O[C@H]2[C@H](C)[C@@H](O[C@@H]3O[C@H](C)C[C@H](N(C)C)[C@H]3O)[C@@H](C)C[C@@]3(CO3)C(=O)[C@H](C)[C@@H](O)[C@@H](C)[C@@H](C)OC(=O)[C@@H]2C)O[C@@H](C)[C@@H]1O` [oleandomycin] was tested. Which antibiotic-resistance pattern (disc at 15 µg) did it give?
The antibiotic-resistance pattern was “sensitive”.

How did the antibiotic-resistance pattern (disc at 10 µg) turn out when gentamicin was run?
The antibiotic-resistance pattern was “sensitive”.

With bacitracin as the molecule, how does the antibiotic-resistance pattern (disc at 10 units) read?
Its antibiotic-resistance pattern is “sensitive”.

With `CCC[C@@H]1C[C@@H](C(=O)N[C@@H]([C@H]2O[C@H](SC)[C@H](O)[C@@H](O)[C@H]2O)[C@@H](C)O)N(C)C1` [lincomycin] as the molecule, how does the antibiotic-resistance pattern (disc at 2 µg) read?
Its antibiotic-resistance pattern is “resistant”.

Which antibiotic-resistance pattern (disc at 30 µg) does the source give for neomycin here?
Its antibiotic-resistance pattern is “sensitive”.

`NC[C@H]1O[C@H](O[C@H]2[C@H](O)[C@@H](O[C@H]3O[C@H](CO)[C@@H](O)[C@H](N)[C@H]3O)[C@H](N)C[C@@H]2N)[C@H](N)C[C@@H]1O` [tobramycin] was tested. Which antibiotic-resistance pattern (disc at 10 µg) did it give?
Its antibiotic-resistance pattern is “sensitive”.

With `CC(=O)OCC1=C(C(=O)O)N2C(=O)[C@@H](NC(=O)Cc3cccs3)[C@H]2SC1` [cephalothin] as the molecule, how does the antibiotic-resistance pattern (disc at 30 µg) read?
Its antibiotic-resistance pattern is “sensitive”.

Which antibiotic-resistance pattern (disc at 10 µg) does the source give for `[H]/N=C(/N)N[C@H]1[C@H](O)[C@@H](O)[C@H](O[C@@H]2O[C@@H](C)[C@](O)(C=O)[C@H]2O[C@@H]2O[C@@H](CO)[C@H](O)[C@@H](O)[C@@H]2NC)[C@@H](N/C(N)=N\[H])[C@@H]1O` [streptomycin] here?
The antibiotic-resistance pattern was “sensitive”.

Which antibiotic-resistance pattern (disc at 5 µg) does the source give for `CO[C@H]1/C=C/O[C@@]2(C)Oc3c(C)c(O)c4c(O)c(c(/C=N/N5CCN(C)CC5)c(O)c4c3C2=O)NC(=O)/C(C)=C\C=C\[C@H](C)[C@H](O)[C@@H](C)[C@@H](O)[C@@H](C)[C@H](OC(C)=O)[C@@H]1C` [rifampin] here?
Its antibiotic-resistance pattern is “sensitive”.

`CC1(C)S[C@@H]2[C@H](NC(=O)Cc3ccccc3)C(=O)N2[C@H]1C(=O)O` [penicillin G] was tested. Which antibiotic-resistance pattern (disc at 10 units) did it give?
Its antibiotic-resistance pattern is “resistant”.
